Entries after “also recorded” stand apart in the source; their conditions may differ. Ends that are not written are not given here. * marks the point of attachment. Biotin = O=C1N[C@H]2[C@H](CS[C@H]2CCCCC(=O)*)N1

This is an account of results in patent US20230160890A1, “COMPOSITIONS AND METHODS FOR DIAGNOSING NARCOLEPSY” (The Board of Trustees of the Leland Stanford Junior …, priority 2018, published 2023).

For assay [1], the system named is CD4+ T cells from T1N donors. The assay is described as follows: In vitro culturing of CD4+ T cells with peptide-loaded T2DQ6 APCs, then tetramer staining. Type of assay: cell-based, human. The note with it: for Frequencies of tetramer+ cells after in vitro stimulation with the corresponding peptide: stained with the tetramer of the corresponding peptide. From the text:
To test for the presence of DQ6-HCRTpeptide tetramer^+/CD4^+ T cells, a peptide-loaded antigen presenting cell (APC) line T2DQ6 (fixed to limit APC proliferation) was co-cultured with T cells for DQ6-restricted antigen stimulation. T2DQ6 was constructed by stable transfection of DQ6 (DQA1*01:02/DQB1*06:02) into T2, a class II deficient TxB hybrid cell^44. T2DQ6 cells were maintained in IMDM, GlutaMAX supplemented media (Thermo Fisher Scientific) with 10% HI FBS, 1% penicillin/streptomycin (P/S) and 1 mg/ml G418 (to maintain selective pressure on DQ6 transfectants). To load antigen, T2DQ6 cells were pulsed with peptides (i.e., EBV486-500, HCRT56-69, HCRT87-100, synthesized by Genscript) at 1 μM final concentration and incubated for 6 hours at 37° C. After peptide loading, 10 million T2DQ6 cells were washed with phosphate buffered saline (PBS) and then fixed by incubating with 0.025% glutaraldehyde in 2 ml PBS at RT for 30 seconds. After the addition of another 2 ml PBS, the cells were incubated for another 10 minutes at RT. Fixed T2DQ6 was washed twice with PBS and once with complete RPMI (RPMI 1640 medium supplemented with 10% HI human AB serum, 2 mM glutamine and 1% PS) before mixing with CD4^+ T cells. Human PBMCs frozen in NUNC tubes were thawed quickly at 37° C. and added slowly to 10 ml warm complete RPMI. PBMCs were pelleted and resuspended in cold buffer for CD4^+ T cell isolation. Cells were isolated from the PBMCs by negative selection, using the CD4^+ cell isolation kit, according to the manufacturer's instructions (Miltenyi Biotec). Isolated CD4^+ T cells were resuspended at 1×10^6 cells/ml in warm complete RPMI and rested for at least 1 hour before mixing with fixed T2DQ6 cells that were also resuspended at 1×10^6 cells/ml in warm complete RPMI. A mixture of 1:1 volume ratio of CD4^+ T cells and T2DQ6 cells in the presence of recombinant human IL-7 at final concentration of 2.5 ng/ml was aliquoted onto a 96-well plate and incubated at 37° C. for 6 days. On day 6 and day 9, 100 μl of the spent medium was removed from each well and replaced with fresh complete RPMI containing recombinant IL-7 at 2.5 ng/ml and IL-2 at 40 U/ml final concentrations. On day 12, a second round of antigen stimulation was performed similarly, using fixed T2DQ6 cells loaded with the corresponding peptides.
Sufficient cells from the co-culture were collected, washed with complete RPMI, and resuspended in 5 ml complete RPMI at RT prior to Ficoll gradient separation. Cells above the Ficoll media were washed and resuspended at 10×10^6 cells/ml in complete RPMI for blocking. […]

The subject of assay [2] is TCR27 transfectants of J76-NFATRE-luc cells. The experiment in a line: T cell activation assay using a luciferase reporter, TCR27 transfectants with K562-DQ6 APCs. Type of assay: cell-based, human. Also on record: dose or concentration left out as unconfirmed. The note with it: DQ6-restricted presentation by K562-DQ6, 1 day. From the text: To encode the entire α/β chains of a candidate TCR, the nucleotide sequences for CDR3a and CDR3P were incorporated in frame with the corresponding V(D)J genes (IMGT/V-QUEST^37). TCRα/β genes were then synthesized and cloned into a plasmid pEF1α-TCRA_2A_TCRB_IRES-AcGFP1 (by GenScript). Each reconstructed plasmid uses a mammalian promoter, EF1a to direct co-expression of α and β chains of one candidate TCR. TCRA and TCRB are separated by the 2A self-cleaving peptide sequence. For selection purposes, the plasmid also encodes the green fluorescence protein (GFP) and neomycin resistance gene, with expression driven by separate promoters. TCR-encoding plasmids were then transfected into the TCRα/β deficient Jurkat cell line (J76-NFATRE-luc)^20 by nucleofection following the Amaxa Optimized protocol (Lonza). Transfectants were selected by G418 at a concentration of 1 mg/ml and recovered after 3-4 weeks of culturing in the RPMI medium supplemented with 10% HI FBS, 2 mM glutamine, and 1% PS. To avoid the heterogeneity in TCR expression observed in a polyclonal cell line, TCRαβ^+/GFP^+/CD3^+ cell transfectants were individually sorted by single cell FACS, to expand clonal cell lines originating from single cell transfectants. These clonal lines were then co-stained with PE anti-TCRα/β Abs (BD Biosciences) and APC DQ6-HCRT tetramers to confirm the expression of TCRs and validate their binding to tetramers using flow cytometric analysis.
The TCR transfectants of J76-NFATRE-luc cells expresses the NFAT-RE (response element)-luciferase reporter gene allowing the conversion of T cell activation signaling to luciferase activity^20. […] The co-culture was incubated with various stimuli at 37° C. for 1 day before quantification of the luciferase activity. […] The mixture was then transferred to a flat-bottom white 96-well plate (Costar) for a measurement of chemiluminescence using a plate reader.
In general terms: Reporter assays use an easily measured gene product as a stand-in for the process of interest.

In assay [3] the target is T1, soluble DQ6 (DQA1*01:02/DQB1*06:02) (Homo sapiens, UniProt P01909+P01920, A157G/A45G/C70R/E118A/E183D/E77G/F83G/G63E/H151Q/H199R/H252R/H253Q/I129T/I235V/I88M/INS77G/K197Q/L117V/L119F/L178F/L71W/L74F/L85Q/L91A/L98M/N214S/P87R/Q116E/Q76K/R102G/R240Q/R75S/R78G/S102Y/S185I/S41F/S97I/T121G/T122I/T172A/T86R/V229M/V68A/V73E/Y34C/Y41F/Y58L).
T1 construct: 3C protease cleavage site (C); leucine zipper-Fos (C); cut by thrombin before the assay (N, cleaved yes); leucine zipper-Jun (C); made in house; host or cells: Drosophila Schneider 2 (S2) insect cells
The assay is described as follows: Peptide competition assay (inhibition of DQ6 binding of biotinylated EBV486-500). From the text:
The ability of a peptide to inhibit the interaction of DQ6 and a reference binding peptide at steady state was used to estimate the relative DQ6 binding capacity of test peptides. We used biotinylated EBV486-500 (aa: biotin-[…] (SEQ ID NO:45), synthesized by Genscript), a DQ6-binding peptide (epitope underlined) derived from Epstein-Barr virus nuclear antigen^25, as our reference peptide. Non-biotinylated test peptides included thirty 15-mer overlapping peptides derived from prepo-HCRT (Table 1, by Genscript) and the positive control peptide EBV486-500. The DQ6-CLIP87-101 construct contains a thrombin cleavage site in between CLIP87-101 and […]. To cleave the covalent linker and enable replacement of CLIP87-101 by high affinity DQ6 binders, soluble DQ6-CLIP87-101 at a concentration of 3 μM was incubated with 0.002 U/μl thrombin enzyme (Novagen, EMD Millipore) for 2 h at room temperature (RT) prior to peptide loading experiments. To test DQ6 binding capacity, a non-biotinylated peptide at 40 μM was mixed with 1 μM biotinylated EBV486-500 and incubated with 25 nM thrombin-cleaved DQ6-CLIP87-101. 100 nM soluble DM was added as a catalyst to increase the peptide exchange efficiency^44. […] Time resolved fluorescence representing DQ6-associated biotinylated EBV486-500 captured by SPV-L3 in each well was then quantified using the DELFIA Eu-N1 Streptavidin System (PerkinElmer).

Assay [4] deals with T2, prepro-HCRT (hypocretin precursor; C-terminus of HCRT2) peptide on HLA-DQA1*01:02 / HLA-DQB1*06:02 (human).
T2 peptide: SGNHAAGILTMGRR
The experiment in a line: multimer staining.

The target in assay [5] is T3, prepro-HCRT (hypocretin precursor) peptide on HLA-DQA1*01:02 / HLA-DQB1*06:02 (human).
T3 peptide: MNLPSTKVSWAAV
The experiment in a line: multimer staining.

The target in assay [6] is T4, prepro-HCRT (hypocretin precursor) peptide on HLA-DQA1*01:02 / HLA-DQB1*06:02 (human).
T4 peptide: ALLSSGAAAQPLP
The experiment in a line: activation reporter or marker.

For assay [7], the target named is soluble HLA-DQ6 (DQA1*01:02/DQB1*06:02), thrombin-cleaved DQ6-CLIP87-101 (human). The experiment in a line: competition: 40 µM test peptide against 1 µM biotinylated EBV486-500 on 25 nM soluble DQ6 with 100 nM HLA-DM, SPV-L3 capture, DELFIA.

For “EBV486-500: a DQ6-binding peptide derived from Epstein-Barr virus nuclear antigen, reference and positive control peptide (Biotin-GGGRALLARSHVERTTDE) [reference compound]”, in assay [1], the “Frequencies of tetramer+ cells after in vitro stimulation with the corresponding peptide” value (from here on “Frequencies of tetramer+ cells”) was “time dependent enrichment”.
SGNHAAGILTMGRR [HCRT87-100]: the “TCR-mediated signaling (luciferase activity)” value (shortened to “TCR-mediated signaling”) in assay [2] is reported as “able to trigger TCR-mediated activation signaling”. Further, the “Enrichment of DQ6-HCRT56-69 tetramer+ cells in peptide-stimulated culture” value in assay [1] (stained with the DQ6-HCRT56-69 tetramer, some T1N donors) is “enrichment”. Further, the “Frequencies of tetramer+ cells” value in assay [1] is “significantly increased”.
Turning to MNLPSTKVSWAAVTL [HCRT1-15], the “% Competition (inhibition of the indicator EBV peptide binding to DQ6)” value in assay [3] (test peptide 40 μM, 1 μM biotinylated EBV486-500, 25 nM DQ6, 100 nM DM, pH 4.6, 37° C., 20 hours) is recorded as over 75%.
Take AGNHAAGILTLGKR [HCRT56-69]: the “Frequencies of tetramer+ cells” value in assay [1] was “significantly increased”.
ALLSSGAAAQPLPDC [HCRT25-39]: the DQ6 binder class result in assay [3] (competition assay, FIG. 2A) was “strong binder”.
With MNLPSTKVSWAAV [HCRT1-13], the “TCR-mediated signaling” value in assay [2] is on record as “failure of TCR27-mediated signaling”.
In the case of SGNHAAGILTM-NH2 [HCRT87-97-NH2], the “TCR-mediated signaling” value in assay [2] was “significant signaling response; also recorded: triggered stronger signaling”.

B1: T1N-irrelevant TCR isolated from a CD8+ T cell (TCR)
alpha TRAV25 TRAJ42 CDR3: CAGTYGGSQGNLIF
beta TRBV19 TRBJ2-2 CDR3: CASSLRSTGELFF
Regarding B1, the binding result in assay [4], in assay [5] and in assay [6] was “no recognition” throughout.

B2: TCR26 (TCR)
alpha TRAV9-2 TRAJ5 CDR3: CALSGKDTGRRALTF
beta TRBV25-1 TRBJ2-1 CDR3: CASSASPNEQFF
Regarding B2, in assay [6], the binding result was “no recognition”.
MNLPSTKVSWAAVTL [Hcrt1-15 peptide (…)] had a % competition in assay [7] of over 75%.
